Converted amounts (≈) assume the structure as drawn. Where two headings read alike, the source gives them in different places. Where a SMILES comes first, the peptide text is derived from it.
Experiments:
A. baumannii #8 = type: cell-based, Acinetobacter baumannii
Text: (§1) To compare the antimicrobial activity among the peptides produced by the method of Example 1, the inventors of the present invention measured the minimal growth inhibitory concentration (MIC), which is minimum concentration of the peptide not allowing any […] of bacterial cells.
(§2) Specifically, the bacterial strains described in the following Table 2 were purchased and cultured to a mid-log phase in MHB (Mueller Hinton Broth) medium. Then, after dilution to bacterial cell concentration of 2×10^5 cells/50 μl, the cells were inoculated to a microtiter plate (NUNC, USA). Thereafter, LL37-1, LL37-2, LL37-3 or LL37-4 peptide which has been synthesized in Example 1 above was subjected to serial dilution, ½ times for each, in a 96-well plate. After adding the peptides in an amount of 50 μl to the cell plate, the cells were cultured for 18 hours at 37° C. By using a microtiter plate reader (Merck Elisa reader, Germany), the absorbance was measured at a wavelength of 600 nm to determine the MIC value of each bacterial strain. As a control group, LL37 as a mother peptide was used and subjected to the same process as above to determine the MIC value of each strain.

A. baumannii #3 = type: cell-based, Acinetobacter baumannii
Text: as §1, §2

A. baumannii #12 = type: cell-based, Acinetobacter baumannii
Text: as §1, §2

A. baumannii #9 = type: cell-based, Acinetobacter baumannii
Text: as §1, §2

A. baumannii #10 = type: cell-based, Acinetobacter baumannii
Text: as §1, §2

A. baumannii #4 = type: cell-based, Acinetobacter baumannii
Text: as §1, §2

A. baumannii #19 = type: cell-based, Acinetobacter baumannii
Text: as §1, §2

A. baumannii #13 = type: cell-based, Acinetobacter baumannii
Text: as §1, §2

A. baumannii #5 = type: cell-based, Acinetobacter baumannii
Text: as §1, §2

A. baumannii KCTC 2508 = type: cell-based, Acinetobacter baumannii
Text: as §1, §2

A. baumannii #11 = type: cell-based, Acinetobacter baumannii
Text: as §1, §2

A. baumannii #2 = type: cell-based, Acinetobacter baumannii
Text: as §1, §2

[1] = test system: L. monocytogenes KCTC 3710; type: cell-based, Listeria monocytogenes
Text: as §1, §2

[2] = Cytotoxicity in normal cell line (MTT); type: cell-based, human; conditions: human
Protocol: To determine the cytotoxicity of the peptides produced by the method of Example 1 in normal cell line, cytotoxicity was measured by using normal human keratinocyte cell line (HaCaT) and normal human fibroblast cell line (Hs27).
Specifically, normal human keratinocyte (HaCaT) cells and normal human fibroblast (Hs27) cells, which have been cultured in DMEM medium containing 10% FBS (fetal bovine serum), were aliquoted in a microtiter plate to have 1×10^4 cells per well. After culturing them for 24 hours, the cells were subjected to a treatment with LL37, LL37-1, LL37-2, LL37-3 or LL37-4 peptide, each at concentration of 0.5, 1, 2, 4, 8, 16 or 32 μM/well, followed by reaction for 24 hours in a 5% CO2 incubator. After culture, a reaction solution containing 5 mg/ml MTT (Thiazolyl Blue Tetrazolium Bromide) dissolved in phosphate buffered saline (PBS) was added in an amount of 10 μl to each well and the reaction was allowed to occur for 1 hour. After that, the supernatant was discarded, and, by dissolving MTT crystals that are formed by adding 200 μl DMSO (dimethyl sulfoxide), the absorbance at 570 nm was measured to determine the cell survival ability.

S. aureus ATCC 25923 = type: cell-based, Staphylococcus aureus
Text: as §1, §2

[3] = test system: Acinetobacter baumannii KCTC 2508; test: Flow cytometry after PI staining (bacteria membrane); type: cell-based; conditions: peptide at concentration of MIC, 30 minutes at 37° C.
Protocol: To determine whether or not the peptides prepared by the method of Example 1 have any effect on bacteria membrane, an analysis was made by flow cytometry.
After that, the supernatant was removed by centrifuge (10,000 rpm) and stained with propidium iodide (PI, concentration of 10 μg/ml) for 30 minutes at 4° C. Thereafter, unbound propidium iodide was removed by centrifuge, and the problem of cell aggregation phenomenon was solved by adding physiological saline (PBS) in an amount of 1 ml.

[4] = test system: Acinetobacter baumannii KCTC 2508; test: Low vacuum scanning electron microscopy (membrane-disrupting property); type: cell-based; conditions: peptide at MIC concentration, 30 minutes at 37° C.
Protocol: To specifically determine the degree of antimicrobial activity of the synthesized peptides of the present invention, the influence of mother peptide LL37 and homologous peptides LL37-1, LL37-2, LL37-3 and LL37-4 on bacteria membrane, i.e., membrane-disrupting property, was determined by low vacuum scanning electron microscopy.
Specifically, Acinetobacter baumannii KCTC 2508 cells were cultured to a mid-log phase in MHB medium, and then diluted to a cell concentration of 2×10^7 cells/ml in physiological saline containing 10% MHB medium. […] After that, by using 2.5% glutaraldehyde, the bacterial cells were fixed for 30 minutes at room temperature and then for 12 hours at 4° C. After carrying out washing with buffer, the cells were fixed again with […] and dehydrated in stepwise manner by using ethanol. After the dehydration, platinum coating was carried out and the cells were observed by low vacuum scanning electron microscopy.

For CC[C@H](C)[C@H](NC(=O)[C@H](CCCNC(=N)N)NC(=O)[C@H](CCC(N)=O)NC(=O)[C@@H](NC(=O)[C@@H](NC(=O)[C@H](CCCNC(=N)N)NC(=O)[C@H](CCCCN)NC(=O)[C@H](Cc1ccccc1)NC(=O)[C@H](CCCCN)NC(=O)[C@@H](N)CCCCN)[C@@H](C)CC)C(C)C)C(=O)N[C@@H](CCCCN)C(=O)N[C@@H](CC(=O)O)C(=O)N[C@@H](Cc1ccccc1)C(=O)N[C@@H](CC(C)C)C(=O)N[C@@H](CCCNC(=N)N)C(=O)N[C@@H](CC(N)=O)C(N)=O [LL37-2, KKFKRIVQRIKDFLRN-NH2] (H-KKFKRIVQRIKDFLRN-NH2), the Minimal inhibitory concentration (A. baumannii #8; A. baumannii #8, tolerance to antibiotics) was 2 µM (≈ 4.18 µg/mL), the Minimal inhibitory concentration (A. baumannii #3; A. baumannii #3, tolerance to antibiotics) was 2 µM (≈ 4.18 µg/mL) and the Minimal inhibitory concentration (A. baumannii #12; A. baumannii #12, tolerance to antibiotics) was 2 µM (≈ 4.18 µg/mL). The Minimal inhibitory concentration (A. baumannii #9; A. baumannii #9, tolerance to antibiotics) was 2 µM (≈ 4.18 µg/mL), the Minimal inhibitory concentration (A. baumannii #10; A. baumannii #10, tolerance to antibiotics) was 2 µM (≈ 4.18 µg/mL) and the Minimal inhibitory concentration (A. baumannii #4; A. baumannii #4, tolerance to antibiotics) was 2 µM (≈ 4.18 µg/mL). The Minimal inhibitory concentration (A. baumannii #19; A. baumannii #19, tolerance to antibiotics) was 2 µM (≈ 4.18 µg/mL), the Minimal inhibitory concentration (A. baumannii #13; A. baumannii #13, tolerance to antibiotics) was 2 µM (≈ 4.18 µg/mL) and the Minimal inhibitory concentration (A. baumannii #5; A. baumannii #5, tolerance to antibiotics) was 2 µM (≈ 4.18 µg/mL). For the same compound, the “Minimal inhibitory concentration of antimicrobial peptide” value (A. baumannii KCTC 2508; A. baumannii KCTC 2508, Control (MIC values of Table 3, no added ions)) was 4 µM, the Minimal inhibitory concentration (A. baumannii KCTC 2508; A. baumannii KCTC 2508, MHB, 18 hours at 37° C.) was 4 µM (≈ 8.35 µg/mL) and the Minimal inhibitory concentration (A. baumannii #11; A. baumannii #11, tolerance to antibiotics) was 2 µM (≈ 4.18 µg/mL). For the same compound, the Minimal inhibitory concentration (A. baumannii #2; A. baumannii #2, tolerance to antibiotics) was 2 µM (≈ 4.18 µg/mL), the Minimal inhibitory concentration ([1]; L. monocytogenes KCTC 3710, MHB, 18 hours at 37° C.) was 16 µM (≈ 33.4 µg/mL) and the viability at 24 h, 0.5 µM ([2]; HaCaT keratinocyte cells, HaCaT, peptide 0.5 μM, 24 hours, MTT, read-out: Cell survival ability) was 100%. It also gave a viability at 24 h, 1 µM ([2]; HaCaT keratinocyte cells, HaCaT, peptide 1 μM, 24 hours, MTT, read-out: Cell survival ability) of 106%, a viability at 24 h, 2 µM ([2]; HaCaT keratinocyte cells, HaCaT, peptide 2 μM, 24 hours, MTT, read-out: Cell survival ability) of 104% and a viability at 24 h, 4 µM ([2]; HaCaT keratinocyte cells, HaCaT, peptide 4 μM, 24 hours, MTT, read-out: Cell survival ability) of 102%. For the same compound, the viability at 24 h, 8 µM ([2]; HaCaT keratinocyte cells, HaCaT, peptide 8 μM, 24 hours, MTT, read-out: Cell survival ability) was 101%, the viability at 24 h, 16 µM ([2]; HaCaT keratinocyte cells, HaCaT, peptide 16 μM, 24 hours, MTT, read-out: Cell survival ability) was 107% and the viability at 24 h, 32 µM ([2]; HaCaT keratinocyte cells, HaCaT, peptide 32 μM, 24 hours, MTT, read-out: Cell survival ability) was 107%. It also gave a viability at 24 h, 0.5 µM ([2]; Hs27 fibroblast cells, Hs27, peptide 0.5 μM, 24 hours, MTT, read-out: Cell survival ability) of 92%, a viability at 24 h, 1 µM ([2]; Hs27 fibroblast cells, Hs27, peptide 1 μM, 24 hours, MTT, read-out: Cell survival ability) of 92% and a viability at 24 h, 2 µM ([2]; Hs27 fibroblast cells, Hs27, peptide 2 μM, 24 hours, MTT, read-out: Cell survival ability) of 94%. It also gave a viability at 24 h, 4 µM ([2]; Hs27 fibroblast cells, Hs27, peptide 4 μM, 24 hours, MTT, read-out: Cell survival ability) of 91%, a viability at 24 h, 8 µM ([2]; Hs27 fibroblast cells, Hs27, peptide 8 μM, 24 hours, MTT, read-out: Cell survival ability) of 89% and a viability at 24 h, 16 µM ([2]; Hs27 fibroblast cells, Hs27, peptide 16 μM, 24 hours, MTT, read-out: Cell survival ability) of 93%. The viability at 24 h, 32 µM ([2]; Hs27 fibroblast cells, Hs27, peptide 32 μM, 24 hours, MTT, read-out: Cell survival ability) was 97% and the Minimal inhibitory concentration (S. aureus ATCC 25923; S. aureus ATCC 25923, MHB, 18 hours at 37° C.) was 2 µM (≈ 4.18 µg/mL).
CC[C@H](C)[C@H](NC(=O)[C@H](CCCNC(=N)N)NC(=O)[C@H](CCC(N)=O)NC(=O)[C@@H](NC(=O)[C@@H](NC(=O)[C@H](CCCNC(=N)N)NC(=O)[C@H](CCCCN)NC(=O)[C@H](Cc1ccccc1)NC(=O)[C@H](CCC(=O)O)NC(=O)[C@@H](N)CCCCN)[C@@H](C)CC)C(C)C)C(=O)N[C@@H](CCCCN)C(=O)N[C@@H](CCCCN)C(=O)N[C@@H](Cc1ccccc1)C(=O)N[C@@H](CC(C)C)C(=O)N[C@@H](CCCNC(=N)N)C(=O)N[C@@H](CC(N)=O)C(N)=O [LL37-3, KEFKRIVQRIKKFLRN-NH2] (H-KEFKRIVQRIKKFLRN-NH2; N-terminus assumed) gave a Minimal inhibitory concentration (A. baumannii #8; #8) of 2 µM (≈ 4.21 µg/mL), a Minimal inhibitory concentration (A. baumannii #3; #3) of 4 µM (≈ 8.41 µg/mL) and a Minimal inhibitory concentration (A. baumannii #12; #12) of 4 µM (≈ 8.41 µg/mL). The Minimal inhibitory concentration (A. baumannii #9; #9) was 2 µM (≈ 4.21 µg/mL), the Minimal inhibitory concentration (A. baumannii #10; #10) was 2 µM (≈ 4.21 µg/mL) and the Minimal inhibitory concentration (A. baumannii #4; #4) was 4 µM (≈ 8.41 µg/mL). The Minimal inhibitory concentration (A. baumannii #19; #19) was 4 µM (≈ 8.41 µg/mL), the Minimal inhibitory concentration (A. baumannii #13; #13) was 2 µM (≈ 4.21 µg/mL) and the Minimal inhibitory concentration (A. baumannii #5; #5) was 4 µM (≈ 8.41 µg/mL). The Minimal inhibitory concentration (A. baumannii KCTC 2508; KCTC 2508, 18 h) was 16 µM (≈ 33.6 µg/mL), the Minimal inhibitory concentration (A. baumannii #11; #11) was 2 µM (≈ 4.21 µg/mL) and the Minimal inhibitory concentration (A. baumannii #2; #2) was 4 µM (≈ 8.41 µg/mL). The “effect on bacteria membrane (PI fluorescence, flow cytometry)” value [3] was “bacteria membrane was damaged”, the “membrane-disrupting property (scanning electron microscopy)” value [4] was “disruption of bacteria membrane” and the Minimal inhibitory concentration ([1]; KCTC 3710, 18 h) was 64 µM (≈ 135 µg/mL). It also gave a viability at 24 h, 0.5 µM ([2]; HaCaT keratinocyte cells) of 96%, a viability at 24 h, 1 µM ([2]; HaCaT keratinocyte cells) of 100% and a viability at 24 h, 2 µM ([2]; HaCaT keratinocyte cells) of 101%. It also gave a viability at 24 h, 4 µM ([2]; HaCaT keratinocyte cells) of 98%, a viability at 24 h, 8 µM ([2]; HaCaT keratinocyte cells) of 98% and a viability at 24 h, 16 µM ([2]; HaCaT keratinocyte cells) of 104%. It also gave a viability at 24 h, 32 µM ([2]; HaCaT keratinocyte cells) of 104%, a viability at 24 h, 0.5 µM ([2]; Hs27 fibroblast cells) of 94% and a viability at 24 h, 1 µM ([2]; Hs27 fibroblast cells) of 92%. For the same compound, the viability at 24 h, 2 µM ([2]; Hs27 fibroblast cells) was 93%, the viability at 24 h, 4 µM ([2]; Hs27 fibroblast cells) was 90% and the viability at 24 h, 8 µM ([2]; Hs27 fibroblast cells) was 91%. For the same compound, the viability at 24 h, 16 µM ([2]; Hs27 fibroblast cells) was 93%, the viability at 24 h, 32 µM ([2]; Hs27 fibroblast cells) was 95% and the Minimal inhibitory concentration (S. aureus ATCC 25923; ATCC 25923, 18 h) was 4 µM (≈ 8.41 µg/mL).

From US11452758B2, “Antimicrobial peptide derived from LL37 peptide and uses thereof” (INDUSTRY-ACADEMIC COOPERATION FOUNDATION, CHOSUN UNIVERSITY, priority 2018, dated 2022)
